Laboratory results taken from US5972894A, “Peptides having potassium channel opener activity” (Cytran, Inc., priority 1997, dated 1999).
Residues, ends and D or L forms follow the SMILES beside them.

How the values were obtained:
[1] = tested on: Intestinal Smooth Muscle; test: Calcium-induced contraction of intestinal smooth muscle specimens; assay type: cell-based, guinea pigs; conditions: for Contraction Amplitude, calcium-induced (% of control level): 20 mM CaCl2
Description: GE and VT served as test substances in this experiment. GE was tested at concentrations of 10^-6 g/ml and 10^-5 g/ml (4.9×10^-6 M and 4.9×10^-5 M, respectively), and VT was tested at concentrations 10^-6 g/ml and 10^-5 g/ml (4.58×10^-6 and 4.58×10^-5 M, respectively).
Small intestinal SMS samples from ten guinea pigs were surgically isolated and prepared as follows. First, the SMS samples were preincubated for 40 minutes in an organ bath holding a standard Krebs-Henseleit physiological salt solution containing calcium chloride (CaCl2) at concentration of 2.5 mM. Next, each SMS was washed with a calcium-free solution of Krebs-Henseleit and incubated in a calcium-free Krebs-Henseleit solution for 40 minutes. Contractile activity was pre-induced in each SMS by first perfusing the organ bath containing the sample for 15 minutes with a Krebs-Henseleit solution containing 30 mM KCl and then perfusing the bath for an additional 15 minutes with a Krebs-Henseleit solution containing 20 mM CaCl2. Finally, each SMS sample was washed with a calcium-free Krebs-Henseleit solution for 40 minutes. In these experiments, measurements of the contractile response of the SMS following the addition of a Krebs-Henseleit solution containing 20 mM calcium served as the control (baseline). Changes in contraction amplitudes were recorded by using the method set forth in Step 1 of Example 2, above.
After washing the SMS as outlined in Step 1, the organ bath with the SMS sample was perfused for 15 minutes with the solution of a test or reference substance. In this instance, GE and VT served as the test substances, and each dipeptide was tested at a concentration of 10^-6 g/ml.
Following perfusion with the test or reference substance, the SMS sample/organ bath was perfused for 10 minutes with a Krebs-Henseleit solution containing 30 mM KCl and then perfused for an additional 10 minutes with a Krebs-Henseleit solution containing 20 mM CaCl2. Next, each SMS sample was washed with a calcium-free Krebs-Henseleit solution for 40 minutes. The effect of the test or reference substance on the SMS sample was evaluated by measuring the contractile response (i.e., the change in contraction amplitude) of the sample following the addition of the Krebs-Henseleit solution containing 20 mM CaCl2.
Next, the organ bath was perfused for 10 minutes with a Krebs-Henseleit solution containing 30 mM KCl and then for additional 10 minutes with a Krebs-Henseleit solution containing 20 mM CaCl2. The effect of the respective test or reference substance was evaluated a second time by measuring the change in the contraction amplitude of the SMS following the addition of the Krebs-Henseleit solution containing 20 mM CaCl2. […]

[2] = tested on: rats; test: Early ischemic myocardial arrhythmias after coronary artery ligation; assay type: in vivo; conditions: for Number of Ventricular Extrasystoles / Overall Duration of Ventricular Tachycardia: 30 min after coronary occlusion
Description: White random-bred male rats weighing 200 g were given light ether anesthesia and were then immobilized and artificially ventilated. The descending branch of the left coronary artery of each rat was ligated. Immediately following ligation, a test or control substance was administered to each rat through the catheterized femoral vein, and an ECG recording was initiated (standard lead II) and maintained for the next 30 minutes.
GE and VT served as test substances and were administered to animals in the respective test groups at doses of 0.1, 1.0, and 10.0 mg/kg. The β-adrenergic blocking agent, propranolol (Obzidan, Germed, Germany), served as the positive control substance and was administered intravenously to each animal in the positive control group at a dose of 0.5 mg/kg. Physiological saline served as the negative control substance and was administered intravenously to animals in the negative control group. Each dose of each test or control substance was tested separately on a group of nine animals.
The following parameters were evaluated based upon the ECG recordings: (i) the number of ventricular extrasystoles that occurred within a 30-minute observation period following coronary occlusion; (ii) the overall cumulative duration of ventricular tachycardias (i.e., the summation of duration of individual paroxysmal ventricular rhythm disturbances in seconds) occurring within the 30-minute observation period; and (iii) the overall duration (in seconds) of the ventricular fibrillations occurring within the 30-minute observation period. The data were processed electronically and statistical comparisons were made between the values obtained from the animals in the experimental test groups and those in the different respective control groups.

[3] = tested on: Rat Portal Vein; test: KCl-induced tonic contraction of rat portal vein smooth muscle specimens; assay type: cell-based
Description: Spontaneous contraction curve values for each SMS were recorded by making repetitive measurements of the spontaneous contractile activity of each sample at 2, 5, 10, and 15 minutes after the addition of the test or reference substance to each SMS/organ bath. Next, 0.5 ml of a solution of 600 mM solution of KCl in […] in the organ bath until a final concentration of 60 mM KCl was achieved. The contractile activity of each SMS was then measured for 5 minutes.

Question: Which “effect on calcium-induced intestinal smooth muscle tonic contraction” value ([1]; 10^-6 and 10^-5 g/ml) does the source give for `NCC(=O)N[C@@H](CCC(=O)O)C(=O)O` [GE, L-Glycyl-L-Glutamic acid] (H-Gly-Glu-OH) here?
Answer: The value was “significantly reduced the amplitude”.

Question: What about the “Contraction Amplitude, calcium-induced (% of control level)” value ([1]; Application I, 10^-6 g/ml) of the same compound?
Answer: The value was 51.08%.

Question: And the “Contraction Amplitude, calcium-induced (% of control level)” value ([1]; Application II, 10^-5 g/ml)?
Answer: The value was 33.14%.

Question: And the “Number of Ventricular Extrasystoles” value ([2]; 0.1 mg/kg i.v.)?
Answer: Its value is 25.22.

Question: What about the “Overall Duration of Ventricular Tachycardia” value ([2]; 0.1 mg/kg i.v.) of the same compound?
Answer: The value was 38.67 s.

Question: And the “Number of Ventricular Extrasystoles” value ([2]; 1.0 mg/kg i.v.)?
Answer: Its value is 116.22.

Question: What about the “Overall Duration of Ventricular Tachycardia” value ([2]; 1.0 mg/kg i.v.) of the same compound?
Answer: Its value is 93.17 s.

Question: What about the “Number of Ventricular Extrasystoles” value ([2]; 10.0 mg/kg i.v.) of the same compound?
Answer: Its value is 47.78.

Question: What about the “Overall Duration of Ventricular Tachycardia” value ([2]; 10.0 mg/kg i.v.) of the same compound?
Answer: Its value is 51.78 s.

Question: What about the “effect on overall duration of ventricular tachycardias” value ([2]; all of the tested doses) of the same compound?
Answer: The value was “reduced the overall duration of ventricular tachycardias”.

Question: And the “Area Under Curve of KCl-Induced Contraction (% of control)” value ([3]; 10^-6 g/ml, 60 mM KCl)?
Answer: The value was 90.26%.

Question: And the “effect on tonic contraction induced by KCl” value ([3]; venous smooth muscle specimens)?
Answer: The value was “neither GE nor VT effected the character of the tonic contraction”.
